# Laboratory results published in patent US20220404374A1, “METHOD FOR DETERMINING WHETHER OR NOT A SUBJECT HAS A PARKINSONIAN CONDITION” (UNIVERSITE DU LUXEMBOURG, priority 2019, published 2022).
# Assays:
# [1] = tested on: HiTox strains of yeast expressing human alpha-synuclein; assay: toxicity assays of 2-HP in HiTox strains of yeast expressing human alpha-synuclein (growth phenotyping); type: cell-based
# Procedure: Yeast cells were grown in synthetic complement (SC) media containing 6.7 g/L yeast nitrogen base without amino acids, 5 g/L ammonium sulfate supplemented with 2 g/L SC. Media was autoclaved and the carbon source (8% raffinose or galactose) was added to a final concentration of 2%.
# Four fresh single colonies of the Hitox strain and its respective control strain were inoculated from SC-2% glucose plates into 5 mL SC-2% raffinose and incubated overnight with shaking (200 rpm) at 30° C. After ≈20 h, overnight cultures were diluted to OD 0.5 and 2 μL of the yeast cultivation was added to 78 μL drug containing media to a final optical density of 0.0125 in a 384-well microplate. 2-HP was diluted in SC-2% raffinose/galactose and tested at different concentrations (1-100 mM). Finally, the plates are measured in a microplate reader (TECAN™ Infinite M200Pro), at an interval of 10 minutes during 72 h at 30° C. Yeast growth phenotyping was performed as previous described (Jung et al. 2015). Final biomass was corrected using the GATHODE software (Jung et al. 2015). The OD600 at 48 h was taken for the quantification.
# enteric neurons = assay: toxicity of 2-HP in enteric neurons (MTT cell viability assay); type: cell-based
# Procedure: Enteric neurons were cultured in differentiation medium, consisting on Neurobasal (Invitrogen, 21103049) supplemented with 1:200 N2 (Invitrogen, 17502048), 1:100 L-Glutamine (Invitrogen, 25030-024), 1:100 B-27 without Vitamin A (Life Technologies, 12587-010), 1:100 Penicillin/Streptomycin (Invitrogen, 15140122), 25 ng/mL GDNF (Peprotech, 450-10) and 100 μM Ascorbic Acid (Sigma, A5960). Cells were cultured for 21 days in a 6-well plate, then detached with Accutase (Sigma, A6964), and replated into a 96-well plate. Cells were maintained under differentiating conditions until day 31, when they were treated with increasing concentrations of 2-hydroxypyridine (Sigma, H56800). Tested concentrations were as follows: 1 μM, 3 μM, 6 μM, 10 μM, 30 μM, 60 μM, 100 μM, 300 μM, 600 μM, 1 mM and 3 mM.
# 2-hydroxypyridine was reconstituted to 10 mM in the differentiation medium described above.
# Cells were treated for 24 h, then cell viability was assessed performing a Tetrazolium (MTT) assay. Thiazolyl Blue tetrazolium Bromide (Sigma, M5655) was reconstituted to a 5 mg/mL solution in differentiation media and filtered. 10 μL of the solution were then added to every well containing 100 μL of media. Plate was incubated for 2 h in a normal incubator (37° C., 5% CO2). […] Cells were disaggregated by pipetting vigorously and absorbance was read at 570 nm, using the microplate Cytation 5M reader (Biotek).
# IL-1b mRNA expression = IL-1b mRNA expression (qPCR) in murine bone-marrow derived macrophages; type: cell-based; settings: 10 mM 2-HP, murine BMDMs
# Procedure: NLRP3 inflammasome activation is thought to play a role in the pathogenesis of neurodegenerative disorders, and increased levels of this inflammasome and of the related cytokine IL-1b have been detected in Parkinson's patients (Guan & Han, 2020). […] Inflammasome activation was evaluated with qPCR for IL-1b expression (normalized to β-actin), considering the fold change relative to 0 mM 2-HP of each time point.
# wildtype mice = assay: adhesive removal test in mice after 2-HP injection into the brain; type: in vivo; settings: higher 2-HP concentrations injected into the brain, 15 days post-injection, vs PBS
# Procedure: The in vivo work testing for effects of 2-HP in a mouse model lead to results from a small-scale 15-day experiment. In this experiment, 2-HP was injected at several concentrations (5, 50 and 100 mM) into the brain of transgenic mice overexpressing human alpha-synuclein, and of wildtype control mice.
# [2] = control strain, higher concentration of 2-HP (FIG. 3C)
smiles,measurement,setting,value
"Oc1ccccn1 [2-HP, 2-hydroxypyridine]",dose at which 2-HP is selectively toxic to transgenic alpha-synuclein expressing yeast,[1]; HiTox yeast expressing human alpha-synuclein vs control strain,1 mM
same,lag time of growth curve,[1]; [2],prolonged
same,yield of growth curve,[1]; [2],unaffected
same,"toxic dose-response, galactose","[1]; galactose, alpha-synuclein induced (FIG. 3B), HiTox strains vs control strain","A toxic dose-response can be observed in the HiTox strains, but not in the control strain"
same,"toxic dose-response, raffinose","[1]; raffinose, alpha-synuclein not induced (FIG. 3A)",A toxic dose-response can be observed
same,toxicity on enteric neurons at 3 mM,enteric neurons,significant changes
same,LD50,"enteric neurons; enteric neurons, 24 h treatment, MTT",around 3 mM
same,"increase in IL-1b mRNA (fold change relative to 0 mM 2-HP, normalized to β-actin)",IL-1b mRNA expression; 3 hours,3.2 fold
same,"increase in IL-1b mRNA (fold change relative to 0 mM 2-HP, normalized to β-actin)",IL-1b mRNA expression; 24 hours,1.5 fold
same,performance in the adhesive removal test (sensorimotor function),wildtype mice,perform worse
